Reference: patent US20180057505A1, “BICYCLIC HETEROARYL COMPOUNDS USEFUL AS INHIBITORS OF THE PAR-2 SIGNALING PATHWAY” (VERTEX PHARMACEUTICALS INCORPORATED, priority 2015, published 2018)
pIC50: −log10 of the molar value.

Legend:
Format in all cases: cell-based
PAR2 (HT-29 cells) [1] = target: T1, PAR2 (HT-29 cells) (Homo sapiens, UniProt P55085); assay: Ca FLIPR TETRA assay, ANTAGONIST mode, activator 3.1 U/mL trypsin; conditions: HT-29 cells, activator 3.1 U/mL trypsin; maximal antagonist concentration per Method (A: 0.1, 1 or 2 μM; B: 50 μM)
T1 construct: host or cells: HT-29
T1 sequence (P55085 26-397): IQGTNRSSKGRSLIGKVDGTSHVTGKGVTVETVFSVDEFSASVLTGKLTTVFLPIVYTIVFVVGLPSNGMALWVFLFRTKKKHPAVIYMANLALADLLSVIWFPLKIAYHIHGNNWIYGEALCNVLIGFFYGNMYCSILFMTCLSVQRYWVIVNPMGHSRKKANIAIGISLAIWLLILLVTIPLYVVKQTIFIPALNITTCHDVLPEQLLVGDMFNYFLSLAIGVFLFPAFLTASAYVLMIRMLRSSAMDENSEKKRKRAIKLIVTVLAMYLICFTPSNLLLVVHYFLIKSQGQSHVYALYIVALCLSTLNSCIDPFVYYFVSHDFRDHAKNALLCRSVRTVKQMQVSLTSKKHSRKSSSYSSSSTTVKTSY
Experimental: (§1) Protocol for Testing PAR2 Compounds in ANTAGONIST Mode Using the Ca FLIPR^TETRA Assay (384 Well).
(§2) 23000 HT-29 cells (ATCC# HTB-38) were plated in 384-well black, transparent-flat bottom plates and incubated in 25 uL of 1% FBS/McCoy's media ON at 37° C. under an atmosphere of 5% CO2. The following day, 25 uL FLIPR calcium 5 Molecular Devices assay reagent (Cat: R-8186) was added. Plates were incubated at 37° C. and r. t. for 45 min and 15 min, respectively. Compounds dilutions were prepared in 100% DMSO using a Biomek FX and diluted 20-fold in HBSS and then 5.5 uL was added directly to the cells by the FLIPR^TETRA (10× dilution) using FLIPR Tetra Pipette tips, black, non-sterile, 384 Molecular Devices (Cat: 9000-0764).
(§3) A first read was performed to determine whether the test compounds on their own can activate Ca^2+ responses. The cells were incubated with the compounds for 30 min at r. t. and then read in ANTAGONIST mode in the same plate by stimulating with 6.2 uL of a fixed concentration of the activator: final concentrations 8 μM SLIGKV, 1 U/mL Thrombin, 3.1 U/mL trypsin, or 0.6 μM UTP.

[2] = system: UTP-stimulated Ca2+ response in HT-29 cells; assay: Ca FLIPR TETRA assay, ANTAGONIST mode, activator 0.6 μM UTP; conditions: Homo sapiens; HT-29 cells, activator 0.6 μM UTP
Experimental: as §1, §2, §3

[3] = system: Thrombin-stimulated Ca2+ response in HT-29 cells; assay: Ca FLIPR TETRA assay, ANTAGONIST mode, activator 1 U/mL Thrombin; conditions: Homo sapiens; HT-29 cells, activator 1 U/mL Thrombin
Experimental: as §1, §2, §3

PAR2 (HT-29 cells) [4] = target: T1, PAR2 (HT-29 cells); assay: Ca FLIPR TETRA assay, ANTAGONIST mode, activator 8 μM SLIGKV; conditions: HT-29 cells, activator 8 μM SLIGKV; maximal antagonist concentration per Method (A: 0.1, 1 or 2 μM; B: 50 μM)
Experimental: as §1, §2, §3

Row | pIC50 (PAR2 (HT-29 cells) [1]) | pIC50 [2] | pIC50 [3] | pIC50 (PAR2 (HT-29 cells) [4]) | Compound
1 | 7.48 | 5.13 | 5.22 | 7.72 | CC(C)(O)C(=O)N1CCN(C(=O)c2cc3nc(-c4ccc(F)cc4)cc(C4(C)CC4)c3o2)C(C)(C)C1 [Example I-27]
2 | 8.46 | 4.96 | 5.06 | 8.38 | CC[C@@H](O)C(=O)N1CCN(C(=O)c2cc3nc(-c4ccc(F)cc4)cc(C4(C)CC4)c3o2)C(C)(C)C1 [Example I-28]
3 | 7.49 | 4.80 | 4.72 | 7.64 | CO[C@H](C)C(=O)N1CCN(C(=O)c2cc3nc(-c4ccc(F)cc4)cc(C4(C)CC4)c3o2)C(C)(C)C1 [Example I-29]
4 | 7.85 | 4.89 | 4.70 | 7.80 | CC1(c2cc(-c3ccc(F)cc3)nc3cc(C(=O)N4CCN(C(=O)[C@H]5CCCO5)CC4(C)C)oc23)CC1 [Example I-30]
5 | 4.68 | < 4.30 | < 4.30 | 4.77 | CC1(c2cc(-c3ccc(F)cc3)nc3cc(C(=O)N4CCN(C(=O)C(O)C5CC5)CC4(C)C)oc23)CC1 (centres unmarked) [Example I-31]
6 | 8.34 | 5.17 | 4.96 | 8.23 | CC(C)[C@@H](O)C(=O)N1CCN(C(=O)c2cc3nc(-c4ccc(F)cc4)cc(C4(C)CC4)c3o2)C(C)(C)C1 [Example I-32]
7 | 7.19 | 5.24 | 5.44 | 7.03 | CC1(c2cc(-c3ccc(F)cc3)nc3cc(C(=O)N4CCN(C(=O)[C@H]5CCC(=O)O5)CC4(C)C)oc23)CC1 [Example I-33]
8 | 8.23 | 4.59 | < 4.60 | 8.34 | CCCCC(O)C(=O)N1CCN(C(=O)c2cc3nc(-c4ccc(F)cc4)cc(C4(C)CC4)c3o2)C(C)(C)C1 (centres unmarked) [Example I-34]
9 | 7.31 | 4.96 | 4.85 | 7.47 | CCC(C)(O)C(=O)N1CCN(C(=O)c2cc3nc(-c4ccc(F)cc4)cc(C4(C)CC4)c3o2)C(C)(C)C1 (centres unmarked) [Example I-35]
10 | 8.82 | < 4.59 | 4.51 | 9.01 | CC(C)C[C@@H](O)C(=O)N1CCN(C(=O)c2cc3nc(-c4ccc(F)cc4)cc(C4(C)CC4)c3o2)C(C)(C)C1 [Example I-36]
11 | 7.17 | 4.77 | 4.68 | 7.24 | COCCOCC(=O)N1CCN(C(=O)c2cc3nc(-c4ccc(F)cc4)cc(C4(C)CC4)c3o2)C(C)(C)C1 [Example I-37]
12 | 8.51 | 4.41 | < 4.30 | 8.46 | CC(C)(C)CC(O)C(=O)N1CCN(C(=O)c2cc3nc(-c4ccc(F)cc4)cc(C4(C)CC4)c3o2)C(C)(C)C1 (centres unmarked) [Example I-38]
13 | 7.70 | 4.64 | 4.68 | 7.85 | CC1(c2cc(-c3ccc(F)cc3)nc3cc(C(=O)N4CCN(C(=O)C(C)(O)C(F)(F)F)CC4(C)C)oc23)CC1 (centres unmarked) [Example I-39]
14 | 8.14 | 4.52 | 4.43 | 8.30 | CC1(c2cc(-c3ccc(F)cc3)nc3cc(C(=O)N4CCN(C(=O)[C@H](O)C5CCCCC5)CC4(C)C)oc23)CC1 [Example I-40]
15 | 8.07 | < 4.30 | < 4.30 | 8.19 | CC1(c2cc(-c3ccc(F)cc3)nc3cc(C(=O)N4CCN(C(=O)[C@H](O)Cc5ccccc5)CC4(C)C)oc23)CC1 [Example I-41]
16 | 8.92 | < 4.30 | < 4.30 | 8.92 | CC1(c2cc(-c3ccc(F)cc3)nc3cc(C(=O)N4CCN(C(=O)C5CCCCC5)CC4(C)C)oc23)CC1 [Example I-42]
17 | 8.09 | < 4.30 | < 4.30 | 8.16 | CC1(C(=O)N2CCN(C(=O)c3cc4nc(-c5ccc(F)cc5)cc(C5(C)CC5)c4o3)C(C)(C)C2)CCCCC1 [Example I-43]
